Read-outs that look alike come from different tables or passages of the source.
Experiments:
[1] = target: IRAK4 (Homo sapiens (Human), UniProt Q9NWZ3); test: IRAK4 MSD degradation in OCI-LY10; type: cell-based
Description: Degradation of IRAK4 in OCI-LY10 was quantitatively measured using Meso Scale Discovery technology. […] Compounds were then added to the assay plates with a final top concentration of 1 to 10 μM in a 1:3 dilution series with total of 8 doses. The assay plates were then incubated for 4 to 24 hours at 37° C. under 5% CO2. […] To prepare MSD assay plates (Meso Scale Discovery Catalog number L15XA-3), the plates were coated with […] capture antibody (mouse Anti-IRAK4 antibody [2H9], ab119942) in PBS, at 40 μL/well. […] Cell lysates were then added to MSD assay plates and the plates were incubated at room temperature for 1 hour. The plates were then washed 3 times with 150 μL/well TBST buffer and 25 μL/well primary detection antibody (rabbit Anti-IRAK4 antibody [Y279], from Abcam. Catalog number ab32511, […]). The assay plates were then incubated at room temperature for 1 hour, washed 3 times with 150 μL/well TBST buffer and 25 µL/well secondary detection antibody, SULFO-TAG anti-rabbit antibody were added (anti rabbit antibody from Meso Scale Discovery, Catalog number R32AB-1, 1 μg/mL). The assay plates were then incubated at room temperature for 1 hour, washed 3 times with 150 μL/well TB ST buffer, and 150 μL/well MSD reading buffer (Meso Scale Discovery catalog number R92TC-2) was added. The plates were then analyzed by a MSD reader (Meso Scale Discovery, Model Quick Plex SQ 120). The data was then analyzed by software Prism 7.0 from GraphPad and the dose-depended IRAK4 degradation were fit using a three-parameter logistic equation to calculate DC50.

[2] = test system: OCI-LY10; test: CTG Cell Viability Assay - OCI-LY10; type: cell-based, human; settings: OCI-LY10, 4 days, read-out: CTG Cell Viability Assay - OCI-LY10: Average external-IC50
Description: Compound-mediated viability effect on OCI-LY10 or TMD8 was quantitatively determined using the CellTiter-Glo® Luminescent Cell Viability Assay kit from Promega (Catalog number G7570) following manufacturer's recommended procedures. […] Compounds were then added to the assay plate with final top concentration of 10 μM and 1:3 dilution series with total of 9 doses. The final DMSO concentration was normalized to 0.2%. The assay plates were incubated at 37° C. for 4 days under 5% CO2. Then the assay plate was equilibrated at room temperature for 10 minutes. […] The data was then analyzed by software Prism 7.0 from GraphPad and the dose response curves were fit using a three-parameter logistic equation to calculate IC50.

[3] = OCI-LY10, 4 hrs, MSD, read-out: IRAK4 MSD degradation in OCI-LY10 at 4 hrs: Average external-Abs DC50
[4] = OCI-LY10, 24 hrs, MSD, read-out: IRAK4 MSD degradation in OCI-LY10 at 24 hrs: Average external-Abs DC50
[5] = OCI-LY10, 4 hrs, read-out: IRAK4 MSD degradation in OCI-LY10 at 4 hrs: DC50
[6] = OCI-LY10, 24 hrs, read-out: IRAK4 MSD degradation in OCI-LY10 at 24 hrs: DC50

Sequence of IRAK4 (Q9NWZ3 whole entry): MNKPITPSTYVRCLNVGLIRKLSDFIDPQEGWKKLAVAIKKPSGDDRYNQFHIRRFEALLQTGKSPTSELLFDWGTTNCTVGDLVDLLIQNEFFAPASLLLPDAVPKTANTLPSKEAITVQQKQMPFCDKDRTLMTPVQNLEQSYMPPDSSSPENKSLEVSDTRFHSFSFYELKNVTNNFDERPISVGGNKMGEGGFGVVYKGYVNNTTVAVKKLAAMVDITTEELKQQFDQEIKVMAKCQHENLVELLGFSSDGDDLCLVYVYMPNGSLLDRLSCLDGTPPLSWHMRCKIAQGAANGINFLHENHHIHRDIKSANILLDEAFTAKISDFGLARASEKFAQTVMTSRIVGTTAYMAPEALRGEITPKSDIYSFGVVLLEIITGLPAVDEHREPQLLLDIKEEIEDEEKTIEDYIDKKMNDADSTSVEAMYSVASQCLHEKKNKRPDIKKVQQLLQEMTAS

Compound	DC50 [1, 3] [nM]	IC50 ([2]; Homo sapiens, OCI-Ly10, 96 h) [nM]	DC50 [1, 4] [nM]	further results
Cn1c(=N)n(C2CCC(=O)NC2=O)c2ccc(CCCOCCCN3CCC(n4cc(NC(=O)c5cnn6ccc(N7CCOCC7)nc56)c(C(F)F)n4)CC3)cc21 (stereo not drawn) [I-179]	100 to 1000	> 1000		
CN(CCCOCCCNc1cccc2c1C(=O)N(C1CCC(=O)NC1=O)C2=O)C[C@H]1CC[C@H](n2cc(N(C)C(=O)c3coc(-c4ccnc(NCC5CC5)c4)n3)c(C(F)F)n2)CC1 (stereo partly drawn) [I-401]	100 to 1000	500 to 1000	> 1000	
CC[C@@H]1[C@H](F)C(=O)N[C@@H]1COc1ccc(-c2ncn(CN(C)CCCOCCCc3cccc4c3n(C)c(=O)n4C3CCC(=O)NC3=O)n2)c2cc(C(N)=O)c(OC)cc12 (stereo partly drawn) [I-188]	100 to 1000	> 1000	100 to 1000	
Cc1c[nH]c2ncnc(N[C@H]3CC[C@H](N4CCN(C(=O)CCOCCCc5ccc6c(c5)n(C)c(=O)n6C5CCC(=O)NC5=O)CC4)CC3)c12 (stereo partly drawn) [I-24]	> 1000	> 1000	> 1000	
CN(C[C@@H]1CN(CCCCc2cccc3c2C(=O)N(C2CCC(=O)NC2=O)C3=O)CCO1)C[C@H]1CC[C@H](n2cc(NC(=O)c3coc(-c4ccnc(NCC5CC5)c4)n3)c(C(F)F)n2)CC1 (stereo partly drawn) [I-343]	10 to 100			IC50 [2]: < 50 nM
Cn1c(=O)n(C2CCC(=O)NC2=O)c2ccc(CN3CCC(CC(=O)N4CCC(n5cc(NC(=O)c6coc(-c7ccnc(NCC8CC8)c7)n6)c(C(F)F)n5)CC4)CC3)cc21 (stereo not drawn) [I-148]	100 to 1000	100 to 500		
O=C1CCC(N2C(=O)c3cccc(NCCOC4CCN(C[C@H]5CC[C@H](n6cc(NC(=O)c7cnn8ccc(N9C[C@H]%10C[C@@H]9CO%10)nc78)c(C(F)F)n6)CC5)CC4)c3C2=O)C(=O)N1 (stereo partly drawn) [I-299]	10 to 100	50 to 100		
CN1C(=O)CCC(n2c(=O)n(C)c3c(CN4CCC(N(C)C[C@H]5CC[C@H](n6cc(NC(=O)c7coc(-c8ccnc(NCC9CC9)c8)n7)c(C(F)F)n6)CC5)CC4)cccc32)C1=O (stereo partly drawn) [I-247]	100 to 1000	> 1000		
CN(CCN1CCO[C@H](CCNc2cccc3c2C(=O)N(C2CCC(=O)NC2=O)C3=O)C1)C[C@H]1CC[C@H](n2cc(NC(=O)c3cnn4ccc(N5C[C@H]6C[C@@H]5CO6)nc34)c(C(F)F)n2)CC1 (stereo partly drawn) [I-340]	100 to 1000	100 to 500	10 to 100	
CN(CC1(CNc2cccc3c2C(=O)N(C2CCC(=O)NC2=O)C3=O)CCC1)C[C@H]1CC[C@H](n2cc(NC(=O)c3cnn4ccc(N5C[C@H]6C[C@@H]5CO6)nc34)c(C(F)F)n2)CC1 (stereo partly drawn) [I-491]		> 1000		DC50 [1, 5]: 100 to 1000 nM; DC50 [1, 6]: > 1000 nM
O=C1CCC(n2c3ccccc3c3c(CCCOC4CCN(C[C@H]5CC[C@H](n6cc(NC(=O)c7cnn8ccc(N9CCOCC9)nc78)c(C(F)F)n6)CC5)CC4)ccnc32)C(=O)N1 (stereo partly drawn) [I-192]	10 to 100	> 1000		
CN(CCCOCCCNc1cccc2c1C(=O)N(C1CCC(=O)NC1=O)C2=O)C[C@H]1CC[C@H](n2cc(NC(=O)c3cnn4ccc(NCC5CC5)nc34)c(C(F)F)n2)CC1 (stereo partly drawn) [I-437]	10 to 100	100 to 500	10 to 100	
CN(CCCNc1cccc2c1C(=O)N(C1CCC(=O)NC1=O)C2=O)C1CCN(C(=O)[C@H]2CC[C@H](n3cc(NC(=O)c4cnn5ccc(C6C[C@H]7C[C@@H]6CO7)nc45)c(C(F)F)n3)CC2)CC1 (stereo partly drawn) [I-358]	> 1000	50 to 100	10 to 100	
CN(CCCOCCCNc1cccc2c1C(=O)N(C1CCC(=O)NC1=O)C2=O)C[C@H]1CC[C@H](n2cc(NC(=O)c3coc(-c4ccnc(N[C@@H]5CCCC[C@@H]5O)c4)n3)c(C(F)F)n2)CC1 (stereo partly drawn) [I-399]	10 to 100	< 50	< 10	
NC[C@H]1CC[C@H](n2cc(NC(=O)c3cnn4ccc(N5CCOCC5)nc34)c(C(F)F)n2)CC1 [I-313, N-[l-[4-(aminomethyl)cyclohexyl]-3-(difluoromethyl)pyrazol-4-yl]-5-morpholino-pyrazolo [1,5-a]pyrimidine-3-carboxamide]	> 1000	> 1000	> 1000	
CN(C[C@H]1CC[C@H](n2cc(NC(=O)c3cnn4ccc(N5CCOCC5)nc34)c(C(F)F)n2)CC1)[C@H]1CC[C@H](Nc2cccc3c2C(=O)N(C2CCC(=O)NC2=O)C3=O)CC1 (stereo partly drawn) [I-355]	10 to 100	100 to 500	< 10	
CC[C@H]1C(COc2ncc(C#CC3CCC(CN(C)CCCOCCCc4cccc5c4n(C)c(=O)n5C4CCC(=O)NC4=O)CC3)c3cc(C(N)=O)c(OC)cc23)NC(=O)[C@H]1F (stereo partly drawn) [I-184]	10 to 100	> 1000	10 to 100	
COc1cc(C(=O)N2CCC(CCCN(C)C[C@H]3CC[C@H](n4cc(NC(=O)c5coc(-c6ccnc(NCC7CC7)c6)n5)c(C(F)F)n4)CC3)CC2)ccc1NC(=O)[C@@H]1N[C@@H](CC(C)(C)C)[C@](C#N)(c2ccc(Cl)cc2F)[C@H]1c1cccc(Cl)c1F [I-141]	> 1000	> 1000	> 1000	
CN(CCc1ccc(CNc2cccc3c2C(=O)N(C2CCC(=O)N(C)C2=O)C3=O)cc1)C[C@H]1CC[C@H](n2cc(NC(=O)c3cnn4ccc(N5C[C@H]6CC5CO6)nc34)c(C(F)F)n2)CC1 (stereo partly drawn) [I-452]		> 1000		DC50 [1, 5]: 100 to 1000 nM; DC50 [1, 6]: > 1000 nM
O=C1CCC(N2C(=O)c3cccc(NCCCCCCC[C@H]4CC[C@H](n5cc(NC(=O)c6cnn7ccc(N8C[C@H]9C[C@@H]8CO9)nc67)c(C(F)F)n5)CC4)c3C2=O)C(=O)N1 (stereo partly drawn) [I-354]	> 1000	> 1000		
Cn1c(=O)n(C2CCC(=O)NC2=O)c2cccc(CCCOCCCN3CCN([C@H]4CC[C@H](Nc5ncnc6ccc(CC#N)cc56)CC4)CC3)c21 (stereo partly drawn) [I-269]	> 1000	> 1000	> 1000	
Cn1c(=O)n(C2CCC(=O)NC2=O)c2cccc(CN3CCC4(CC3)CCN(C[C@H]3CC[C@H](n5cc(NC(=O)c6coc(-c7ccnc(NCC8CC8)c7)n6)c(C(F)F)n5)CC3)CC4)c21 (stereo partly drawn) [I-245]	10 to 100	< 50		
CN(CC1CCN(Cc2ccc3c(c2)n(C)c(=O)n3C2CCC(=O)NC2=O)CC1)C[C@H]1CC[C@H](n2cc(NC(=O)c3coc(-c4ccnc(NCC5CC5)c4)n3)c(C(F)F)n2)CC1 (stereo partly drawn) [I-127]	< 10	> 1000	< 10	
CN[C@@H](C)C(=O)N[C@H](C(=O)N1Cc2cc(OCCOCCOCCOCCNC[C@H]3CC[C@H](n4cc(NC(=O)c5coc(-c6ccnc(NCC7CC7)c6)n5)c(C(F)F)n4)CC3)ccc2C[C@H]1C(=O)N[C@@H]1CCCc2ccccc21)C(C)(C)C [I-390]	> 1000			IC50 ([2]; Homo sapiens, 96 h): > 1000 nM
O=C1CCC(N2C(=O)c3cccc(NCCc4ccc(CCNC[C@H]5CC[C@H](n6cc(NC(=O)c7cnn8ccc(N9C[C@H]%10C[C@@H]9CO%10)nc78)c(C(F)F)n6)CC5)cc4)c3C2=O)C(=O)N1 (stereo partly drawn) [I-346, N-[3-(difluoromethyl)-1-[4-[[2-[4-[2-[[2-(2,6-dioxo-3-piperidyl)-1,3-dioxo-isoindolin-4-yl]amino]ethyl]phenyl]ethylamino]methyl]cyclohexyl]pyrazol-4-yl]-5-[(1R,4R)-2-oxa-5-azabicyclo[2.2.1]heptan-5-yl]pyrazolo[1,5-a]pyrimidine-3-carboxamide]	> 1000	< 50		
Cn1c(=O)n(C2CCC(=O)NC2=O)c2ccc(C#CC3CCN(C[C@H]4CC[C@H](n5cc(NC(=O)c6coc(-c7ccnc(NCC8CC8)c7)n6)c(C(F)F)n5)CC4)CC3)cc21 (stereo partly drawn) [I-111]		> 1000		
CN(CC[C@@H]1CN(CCCc2cccc3c2n(C)c(=O)n3C2CCC(=O)NC2=O)CCO1)C[C@H]1CC[C@H](n2cc(NC(=O)c3coc(-c4ccnc(NCC5CC5)c4)n3)c(C(F)F)n2)CC1 (stereo partly drawn) [I-116]		> 1000		
CN(CC[C@H]1CN(CCCc2cccc3c2n(C)c(=O)n3C2CCC(=O)NC2=O)CCO1)C[C@H]1CC[C@H](n2cc(NC(=O)c3coc(-c4ccnc(NCC5CC5)c4)n3)c(C(F)F)n2)CC1 (stereo partly drawn) [I-117]		> 1000		
CN(CC1CCC(n2cc(NC(=O)c3coc(-c4ccnc(NCC5CC5)c4)n3)c(C(F)F)n2)CC1)C[C@H]1CN(CCCc2cccc3c2n(C)c(=O)n3C2CCC(=O)NC2=O)CCO1 (stereo partly drawn) [I-113]		> 1000		

Source: US11352350B2, “IRAK degraders and uses thereof” (Kymera Therapeutics, Inc., priority 2018, dated 2022)
